Test results as given in US4923963A, “Bradykinin antagonist peptides” (Nova Technology Limited Partnership, priority 1987, dated 1990).
Where two headings read alike, the source gives them in different places. Square brackets hold non-standard residues; d marks the D form. Peptide text beside a SMILES is read from it. dPhe(4-Cl) = N[C@H](Cc1ccc(Cl)cc1)C(=O)O; dPhe(4-F) = N[C@H](Cc1ccc(F)cc1)C(=O)O; d2Nal = N[C@H](Cc1ccc2ccccc2c1)C(=O)O; Hyp = O=C(O)[C@@H]1C[C@@H](O)CN1; 2Thi = N[C@@H](Cc1cccs1)C(=O)O; d2Thi = N[C@H](Cc1cccs1)C(=O)O

Assays:
[1] = test system: isolated rat uterus; type: cell-based; settings: for pA2 /RUT: activity class: not quantitated
Protocol: (§1) The bradykinin antagonists were assayed on isolated rat uterus in natural or induced estrus and on guinea pig ileum, according to the commonly accepted assay methods for bradykinin and related kinins as described by Trautschold (Handbook of Expt. Pharmacol. Vol 25, Springer Verlag, pp. 53-55, 1970) for inhibition of the myotropic activity of bradykinin. The inhibition potencies, as determined according to the commonly accepted manner described by Schild for antagonists of biologically active compounds (Br. J. Pharmacol. 2:189, 1947), and expressed as pA2 values are determined on isolated rat uterus (RUT) and isolated guinea pig ileum (GPI). In the assays, a dose-response curve is determined for the reference substance bradykinin. The dose of bradykinin which produced a half maximal contraction of tissue is the ED50 dose. An amount of bradykinin equivalent to twice the ED50 dose is administered to the tissue 30 seconds after the start of incubation of the tissue with a dose of antagonist. Doses of antagonist are increased in this protocol until pre-incubation with a dose of antagonist reduces the contraction in response to the double ED50 dose of bradykinin to response of a single ED50 dose of bradykinin. The pA2 value represents the negative logarithm of the molar concentration of antagonist necessary to reduce the response of a double ED50 dose of bradykinin to that of an ED50 dose. One unit of pA2 value represents an order of magnitude change in potency. For comparison, the negative log of the dose of BK, the dose which causes half maximal contraction of the tissues, is commonly known as the pD2 value. The pD2 value for bradykinin is 7.9 on the rat uterus and 7.4 on the guinea pig ileum.

[2] = test system: isolated guinea pig ileum; type: cell-based; design: pA2 /GPI: activity class: scale not given here; settings: isolated guinea pig ileum; not quantitated
Protocol: as §1

[3] = test system: rat blood pressure; test: effects on blood pressure in the anesthetized rat (RBP), intraaortic and intravenous bolus; type: in vivo; design: RBP-IA: activity class / RBP-IV: activity class: scale not given here; settings: for RBP-IA: activity class / RBP-IV: activity class: rat blood pressure; for RBP-IA: activity class: intraaortic bolus; for RBP-IV: activity class: intravenous bolus; for % DESTR (metabolic breakdown of BK-like agonists in RBP assay) / RBP-IA: agonist potency as percent of BK potency / RBP-IV: agonist potency as percent of BK potency: rat, in vivo
Protocol: The in vivo effects of bradykinin antagonists on blood pressure in the anesthetized rat are determined according to the assay described by Roblero, Ryan and Stewart (Res. Commun. Pathol. Pharmacol. 6:207, 1973). The antagonists also produce inhibition of the bradykinin response when injected as a bolus admixture of bradykinin plus antagonist by either the ia or iv route of administration.

[4] = isolated rat uterus, number of tissues in parentheses

CC(=O)N[C@@H](CCCNC(=N)N)C(=O)N1CCC[C@H]1C(=O)N1CCC[C@H]1C(=O)NCC(=O)N[C@@H](Cc1cccs1)C(=O)N[C@@H](CO)C(=O)N[C@H](Cc1ccccc1)C(=O)N[C@@H](Cc1cccs1)C(=O)N[C@H](CCCNC(=N)N)C(N)=O [Example 56, Ac-Arg-Pro-Pro-Gly-Thi-Ser-DPhe-Thi-DArg-NH2] (Ac-RPPG[2Thi]S[dF][2Thi][dR]-NH2)
pA2 /RUT: activity class ([1]; isolated rat uterus): 0 | pA2 /GPI: activity class [2]: 0

CC(C)[C@@H](NC(=O)[C@H](N)CCCNC(=N)N)C(=O)N1CCC[C@H]1C(=O)N1C[C@H](O)C[C@H]1C(=O)NCC(=O)N[C@@H](Cc1ccccc1)C(=O)N[C@@H](CO)C(=O)N[C@H](Cc1ccccc1)C(=O)N[C@@H](Cc1ccccc1)C(=O)N[C@@H](CCCNC(=N)N)C(=O)O [Example 16, DArg-DVal-Pro-Hyp-Gly-Phe-Ser-DPhe-Phe-Arg] (H-[dR][dV]P[Hyp]GFS[dF]FR-OH)
RBP-IA: activity class [3]: 0 | RBP-IV: activity class [3]: 0 | pA2 /GPI: activity class [2]: 0

N=C(N)NCCC[C@H](NC(=O)[C@H](Cc1ccccc1)NC(=O)[C@@H](Cc1ccccc1)NC(=O)[C@H](CO)NC(=O)[C@H](Cc1ccccc1)NC(=O)CNC(=O)[C@@H]1C[C@@H](O)CN1C(=O)[C@@H]1CCCN1C(=O)[C@H](N)Cc1ccc(O)cc1)C(=O)O [Example 9, DTyr-Pro-Hyp-Gly-Phe-Ser-DPhe-Phe-Arg] (H-[dY]P[Hyp]GFS[dF]FR-OH)
pA2 /GPI: activity class [2]: 0

N=C(N)NCCC[C@H](NC(=O)[C@H](Cc1ccccc1)NC(=O)[C@@H](Cc1ccccc1)NC(=O)[C@H](CO)NC(=O)[C@H](Cc1ccccc1)NC(=O)CNC(=O)[C@@H]1CCCN1C(=O)[C@@H]1CCCN1C(=O)[C@H](N)Cc1ccc(Cl)cc1)C(=O)O [Example 2, CDF-Pro-Pro-Gly-Phe-Ser-DPhe-Phe-Arg] (H-[dPhe(4-Cl)]PPGFS[dF]FR-OH)
pA2 /RUT (antagonist potency) [1, 4]: 5.0 | pA2 /GPI: activity class [2]: 0

N=C(N)NCCC[C@@H](N)C(=O)N[C@H](Cc1cccs1)C(=O)N1CCC[C@H]1C(=O)N1C[C@H](O)C[C@H]1C(=O)NCC(=O)N[C@@H](Cc1ccccc1)C(=O)N[C@@H](CO)C(=O)N[C@H](Cc1cccs1)C(=O)N[C@@H](Cc1ccccc1)C(=O)N[C@@H](CCCNC(=N)N)C(=O)O [Example 36, DArg-DThi-Pro-Hyp-Gly-Phe-Ser-DThi-Phe-Arg] (H-[dR][d2Thi]P[Hyp]GFS[d2Thi]FR-OH)
pA2 /GPI: activity class [2]: 0

N=C(N)NCCC[C@@H](N)C(=O)N[C@H](Cc1ccc2ccccc2c1)C(=O)N1CCC[C@H]1C(=O)N1C[C@H](O)C[C@H]1C(=O)NCC(=O)N[C@@H](Cc1ccccc1)C(=O)N[C@@H](CO)C(=O)N[C@H](Cc1ccccc1)C(=O)N[C@@H](Cc1ccccc1)C(=O)N[C@@H](CCCNC(=N)N)C(=O)O [Example 32, DArg-DNal-Pro-Hyp-Gly-Phe-Ser-DPhe-Phe-Arg] (H-[dR][d2Nal]P[Hyp]GFS[dF]FR-OH)
pA2 /RUT (antagonist potency) [1]: 5.9 | pA2 /GPI: activity class [2]: 0

N=C(N)NCCC[C@@H](N)C(=O)N[C@H](Cc1ccc(Cl)cc1)C(=O)N1CCC[C@H]1C(=O)N1C[C@H](O)C[C@H]1C(=O)NCC(=O)N[C@@H](Cc1ccccc1)C(=O)N[C@@H](CO)C(=O)N[C@H](Cc1ccccc1)C(=O)N[C@@H](Cc1ccccc1)C(=O)N[C@@H](CCCNC(=N)N)C(=O)O [Example 5, DArg-CDF-Pro-Hyp-Gly-Phe-Ser-DPhe-Phe-Arg] (H-[dR][dPhe(4-Cl)]P[Hyp]GFS[dF]FR-OH)
pA2 /RUT (antagonist potency) [1, 4]: 5.8 | pA2 /GPI: activity class [2]: 0

N=C(N)NCCC[C@H](NC(=O)[C@H](Cc1ccccc1)NC(=O)[C@@H](Cc1ccccc1)NC(=O)[C@H](CO)NC(=O)[C@H](Cc1ccccc1)NC(=O)CNC(=O)[C@@H]1C[C@@H](O)CN1C(=O)[C@@H]1CCCN1C(=O)[C@H](N)Cc1ccc(Cl)cc1)C(=O)O [Example 3, CDF-Pro-Hyp-Gly-Phe-Ser-DPhe-Phe-Arg] (H-[dPhe(4-Cl)]P[Hyp]GFS[dF]FR-OH)
pA2 /GPI: activity class [2]: 0

N=C(N)NCCC[C@H](NC(=O)[C@H](Cc1cccs1)NC(=O)[C@@H](Cc1ccccc1)NC(=O)[C@H](CO)NC(=O)[C@H](Cc1cccs1)NC(=O)CNC(=O)[C@@H]1CCCN1C(=O)[C@@H]1CCCN1C(=O)[C@H](N)Cc1ccccc1)C(=O)O [Example 19, DPhe-Pro-Pro-Gly-Thi-Ser-DPhe-Thi-Arg] (H-[dF]PPG[2Thi]S[dF][2Thi]R-OH)
pA2 /RUT: activity class ([1]; isolated rat uterus): 0 | pA2 /GPI: activity class [2]: 0

N=C(N)NCCC[C@@H](N)C(=O)N[C@H](Cc1ccc2ccccc2c1)C(=O)N1CCC[C@H]1C(=O)N1C[C@H](O)C[C@H]1C(=O)NCC(=O)N[C@@H](Cc1ccccc1)C(=O)N[C@@H](CO)C(=O)N[C@H](Cc1cccs1)C(=O)N[C@@H](Cc1ccccc1)C(=O)N[C@@H](CCCNC(=N)N)C(=O)O [Example 40, DArg-DNal-Pro-Hyp-Gly-Phe-Ser-DThi-Phe-Arg] (H-[dR][d2Nal]P[Hyp]GFS[d2Thi]FR-OH)
pA2 /RUT (antagonist potency) [1]: 5.6 | pA2 /GPI: activity class [2]: 0

CC[C@@H](C)[C@@H](NC(=O)[C@H](N)CCCNC(=N)N)C(=O)N1CCC[C@H]1C(=O)N1C[C@H](O)C[C@H]1C(=O)NCC(=O)N[C@@H](Cc1ccccc1)C(=O)N[C@@H](CO)C(=O)N[C@H](Cc1ccccc1)C(=O)N[C@@H](Cc1ccccc1)C(=O)N[C@@H](CCCNC(=N)N)C(=O)O [Example 18, DArg-DIle-Pro-Hyp-Gly-Phe-Ser-DPhe-Phe-Arg] (H-[dR][dI]P[Hyp]GFS[dF]FR-OH)
RBP-IA: activity class [3]: 0 | RBP-IV: activity class [3]: 0 | pA2 /GPI: activity class [2]: 0

N=C(N)NCCC[C@H](NC(=O)[C@H](Cc1ccccc1)NC(=O)[C@@H](Cc1cccs1)NC(=O)[C@H](CO)NC(=O)[C@H](Cc1ccccc1)NC(=O)CNC(=O)[C@@H]1CCCN1C(=O)[C@@H]1CCCN1C(=O)[C@H](N)Cc1ccc(Cl)cc1)C(=O)O [Example 6, CDF-Pro-Pro-Gly-Phe-Ser-DThi-Phe-Arg] (H-[dPhe(4-Cl)]PPGFS[d2Thi]FR-OH)
RBP-IA: activity class [3]: 0 | RBP-IV: activity class [3]: 0 | pA2 /GPI: activity class [2]: 0

N=C(N)NCCC[C@H](NC(=O)[C@H](Cc1ccccc1)NC(=O)[C@@H](Cc1ccccc1)NC(=O)[C@H](CO)NC(=O)[C@H](Cc1ccccc1)NC(=O)CNC(=O)[C@@H]1C[C@@H](O)CN1C(=O)[C@@H]1CCCN1C(=O)[C@H](N)Cc1ccc(F)cc1)C(=O)O [Example 11, FDF-Pro-Hyp-Gly-Phe-Ser-DPhe-Phe-Arg] (H-[dPhe(4-F)]P[Hyp]GFS[dF]FR-OH)
pA2 /GPI: activity class [2]: 0

N=C(N)NCCC[C@H](N)C(=O)N1CCC[C@H]1C(=O)N1CCC[C@H]1C(=O)NCC(=O)N[C@@H](Cc1cccs1)C(=O)N[C@@H](CO)C(=O)N[C@H](Cc1ccccc1)C(=O)N[C@@H](Cc1cccs1)C(=O)N[C@H](CCCNC(=N)N)C(N)=O [Example 55, Arg-Pro-Pro-Gly-Thi-Ser-DPhe-Thi-DArg-NH2] (H-RPPG[2Thi]S[dF][2Thi][dR]-NH2)
% DESTR (metabolic breakdown of BK-like agonists in RBP assay) [3]: 61% | RBP-IA: agonist potency as percent of BK potency [3]: 0.1% | RBP-IV: agonist potency as percent of BK potency [3]: 0.9% | pA2 /RUT: agonist potency as percent of BK potency [1]: 0.01%

N=C(N)NCCC[C@H](NC(=O)[C@H](Cc1cccs1)NC(=O)[C@@H](Cc1ccccc1)NC(=O)[C@H](CO)NC(=O)[C@H](Cc1cccs1)NC(=O)CNC(=O)[C@@H]1CCCN1C(=O)[C@@H]1CCCN1C(=O)[C@@H](Cc1ccc2ccccc2c1)NC(=O)[C@H](CCCCN)NC(=O)[C@@H](N)CCCCN)C(=O)O [Example 24, Lys-Lys-DNal-Pro-Pro-Gly-Thi-Ser-DPhe-Thi-Arg] (H-KK[d2Nal]PPG[2Thi]S[dF][2Thi]R-OH)
pA2 /GPI: activity class [2]: 0

CC[C@@H](C)[C@@H](N)C(=O)N1CCC[C@H]1C(=O)N1C[C@H](O)C[C@H]1C(=O)NCC(=O)N[C@@H](Cc1ccccc1)C(=O)N[C@@H](CO)C(=O)N[C@H](Cc1ccccc1)C(=O)N[C@@H](Cc1ccccc1)C(=O)N[C@@H](CCCNC(=N)N)C(=O)O [Example 17, DIle-Pro-Hyp-Gly-Phe-Ser-DPhe-Phe-Arg] (H-[dI]P[Hyp]GFS[dF]FR-OH)
RBP-IA: activity class [3]: 0 | RBP-IV: activity class [3]: 0 | pA2 /GPI: activity class [2]: 0

N=C(N)NCCC[C@H](NC(=O)[C@H](Cc1cccs1)NC(=O)[C@@H](Cc1ccccc1)NC(=O)[C@H](CO)NC(=O)[C@H](Cc1cccs1)NC(=O)CNC(=O)[C@@H]1CCCN1C(=O)[C@@H]1CCCN1C(=O)[C@@H](N)CCCNC(=N)N)C(N)=O [Example 51, Arg-Pro-Pro-Gly-Thi-Ser-DPhe-Thi-Arg-NH2] (H-RPPG[2Thi]S[dF][2Thi]R-NH2)
% DESTR (metabolic breakdown of BK-like agonists in RBP assay) [3]: 52% | RBP-IA: agonist potency as percent of BK potency [3]: 0.05% | RBP-IV: agonist potency as percent of BK potency [3]: 2% | pA2 /RUT: agonist potency as percent of BK potency [1]: 0.02%
